This passage reports IC50 results from ChEMBL document CHEMBL5727720, “Bruton's tyrosine kinase inhibitors” (2020).

Bounds are passed on as bounds.

For the test, the target named is Tyrosine-protein kinase BTK (Homo sapiens, UniProt Q06187). Kind of test: Kinase Assay: Measurements were performed in a reaction volume of 15 μL using 384-well assay plates. Kinase enzyme, inhibitor, ATP and 1 μM peptide substrate were incubated in a reaction buffer compose of Hepes 50 mM (pH7.0), NaN3 0.02%, BSA 0.01%, Orthocanadate 0.1 mM. After one hour, the kinase reaction was quenched by the addition of […] antibody and XL-665 in 1×Detection buffer containing 60 mM EDTA (Cisbio), and the mixture was allowed to incubate for one hour. The HTRF signal was measured on a multimode plate reader (EnVision® Multilabel Reader, Perkin Elmer) with an excitation wavelength (λEx) of 330 nm and detection wavelengths (λEm) of 615 and 665 nm. Activity was determined by the ratio of the fluorescence at 665 nm to that at 615 nm. For each compound, enzyme activity as measured at various concentrations of compound, Negative control reactions were performed in the absence of inhibitor in two replicates and eight no enzyme controls. A general note: In TR-FRET formats the signal depends on donor and acceptor labels being close together.
Sequence of Tyrosine-protein kinase BTK (Q06187 whole entry): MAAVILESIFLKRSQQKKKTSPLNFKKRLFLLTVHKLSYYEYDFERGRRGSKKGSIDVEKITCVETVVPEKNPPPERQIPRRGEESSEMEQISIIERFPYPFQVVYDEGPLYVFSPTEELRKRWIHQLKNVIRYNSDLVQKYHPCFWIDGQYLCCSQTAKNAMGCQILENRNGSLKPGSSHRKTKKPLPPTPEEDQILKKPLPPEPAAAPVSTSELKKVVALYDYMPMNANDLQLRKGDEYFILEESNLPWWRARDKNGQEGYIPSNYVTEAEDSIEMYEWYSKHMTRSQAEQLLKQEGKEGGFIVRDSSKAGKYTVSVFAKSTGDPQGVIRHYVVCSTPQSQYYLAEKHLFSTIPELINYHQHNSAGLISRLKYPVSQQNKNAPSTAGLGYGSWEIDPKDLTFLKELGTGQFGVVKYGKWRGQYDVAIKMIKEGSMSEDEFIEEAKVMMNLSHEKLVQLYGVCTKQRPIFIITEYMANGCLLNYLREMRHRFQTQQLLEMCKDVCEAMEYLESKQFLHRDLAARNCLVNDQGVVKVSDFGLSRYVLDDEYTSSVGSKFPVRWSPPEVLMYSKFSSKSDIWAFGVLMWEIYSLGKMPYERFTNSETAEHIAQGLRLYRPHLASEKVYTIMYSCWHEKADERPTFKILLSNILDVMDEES

`C=CC(=O)N1CCC[C@@H](n2nc(-c3ccc(Oc4cccc(OC)c4Cl)cc3)c3cncc(OCCCC)c32)C1`: the IC50 is less than 10 nM.
For the compound `C=CC(=O)N1CCC[C@@H](n2nc(-c3ccc(Oc4cccc(OC)c4Cl)cc3)c3cncc(OCCC)c32)C1`, the half-inhibitory concentration (IC50) was less than 10 nM.
As to `C=CC(=O)N1CCC[C@@H](n2nc(-c3ccc(Oc4cccc(OC)c4Cl)cc3)c3cncc(OC)c32)C1`, the 50% inhibitory concentration (IC50) is less than 10 nM.
As to `C=CC(=O)N1CCC[C@@H](n2nc(-c3ccc(Oc4cccc(OC)c4Cl)cc3)c3cncc(OC4CCOC4)c32)C1` (some centres not stated), the IC50 is less than 10 nM.
As for `C=CC(=O)N1CCC[C@@H](n2nc(-c3ccc(Oc4cccc(OC)c4Cl)cc3)c3cncc(OC(C)C)c32)C1`, the 50% inhibitory concentration (IC50) was less than 10 nM.
With `C=CC(=O)N1CC[C@@H](n2nc(-c3ccc(Oc4cccc(OC)c4Cl)cc3)c3cncc(OCC)c32)C1`, the IC50 was less than 10 nM.
For `C=CC(=O)N1CCC[C@@H](n2nc(-c3ccc(Oc4cccc(OC)c4Cl)cc3)c3cncc(OCC)c32)C1`, the half-maximal inhibitory concentration (IC50) was less than 10 nM.

What is called IC50 is the concentration at which inhibition is half-maximal.
